Assay results as given in PubChem BioAssay (NCI).
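A five-concentration, 48-hour dose response in 96-well plates underlies each endpoint, interpolated linearly between surrounding concentrations. TGI: concentration producing complete growth inhibition.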

Legend:
Assay in all cases: growth of human tumour cells (NCI), 48 h
786-0 renal = test system: 786-0 renal
A549 NSCLC = test system: A549 NSCLC
ACHN renal = test system: ACHN renal
CAKI-1 renal = test system: CAKI-1 renal
CCRF-CEM leukemia = test system: CCRF-CEM leukemia
COLO 205 colon = test system: COLO 205 colon
DLD-1 colon = test system: DLD-1 colon
DMS 114 small cell lung = test system: DMS 114 small cell lung
DMS 273 small cell lung = test system: DMS 273 small cell lung
EKVX NSCLC = test system: EKVX NSCLC
HCC-2998 colon = test system: HCC-2998 colon
HCT-15 colon = test system: HCT-15 colon
HL-60(TB) leukemia = test system: HL-60(TB) leukemia
HOP-18 NSCLC = test system: HOP-18 NSCLC
HOP-62 NSCLC = test system: HOP-62 NSCLC
HOP-92 NSCLC = test system: HOP-92 NSCLC
HT29 colon = test system: HT29 colon
IGROV1 ovarian = test system: IGROV1 ovarian
K-562 leukemia = test system: K-562 leukemia
KM12 colon = test system: KM12 colon
KM20L2 colon = test system: KM20L2 colon
LOX IMVI melanoma = test system: LOX IMVI melanoma
LXFL 529 NSCLC = test system: LXFL 529 NSCLC
M14 melanoma = test system: M14 melanoma
M19-MEL melanoma = test system: M19-MEL melanoma
MALME-3M melanoma = test system: MALME-3M melanoma
MOLT-4 leukemia = test system: MOLT-4 leukemia
NCI-H23 lung = test system: NCI-H23 lung
NCI-H460 lung = test system: NCI-H460 lung
NCI-H522 lung = test system: NCI-H522 lung
OVCAR-3 ovarian = test system: OVCAR-3 ovarian
OVCAR-4 ovarian = test system: OVCAR-4 ovarian
OVCAR-5 ovarian = test system: OVCAR-5 ovarian
OVCAR-8 ovarian = test system: OVCAR-8 ovarian
RPMI-8226 leukemia = test system: RPMI-8226 leukemia
RXF 393 renal = test system: RXF 393 renal
SF-268 CNS = test system: SF-268 CNS
SF-295 CNS = test system: SF-295 CNS
SF-539 CNS = test system: SF-539 CNS
SK-MEL-2 melanoma = test system: SK-MEL-2 melanoma
SK-MEL-28 melanoma = test system: SK-MEL-28 melanoma
SK-MEL-5 melanoma = test system: SK-MEL-5 melanoma
SK-OV-3 ovarian = test system: SK-OV-3 ovarian
SN12C renal = test system: SN12C renal
SNB-19 CNS = test system: SNB-19 CNS
SNB-75 CNS = test system: SNB-75 CNS
SW-620 colon = test system: SW-620 colon
TK-10 renal = test system: TK-10 renal
U251 CNS = test system: U251 CNS
UACC-257 melanoma = test system: UACC-257 melanoma
UACC-62 melanoma = test system: UACC-62 melanoma
UO-31 renal = test system: UO-31 renal

Measured: TGI

N#CC1(C#N)C(c2ccc(C3C(C#N)(C#N)C3(C#N)C#N)cc2)C1(C#N)C#N
> 100 µM: 786-0 renal | A549 NSCLC | ACHN renal | CAKI-1 renal | CCRF-CEM leukemia | COLO 205 colon | DLD-1 colon | DMS 114 small cell lung | DMS 273 small cell lung | EKVX NSCLC | HCC-2998 colon | HCT-15 colon | HL-60(TB) leukemia | HOP-18 NSCLC | HOP-62 NSCLC | HOP-92 NSCLC | HT29 colon | IGROV1 ovarian | K-562 leukemia | KM12 colon | KM20L2 colon | LOX IMVI melanoma | LXFL 529 NSCLC | M14 melanoma | M19-MEL melanoma | MALME-3M melanoma | MOLT-4 leukemia | NCI-H23 lung | NCI-H460 lung | NCI-H522 lung | OVCAR-3 ovarian | OVCAR-4 ovarian | OVCAR-5 ovarian | OVCAR-8 ovarian | RPMI-8226 leukemia | RXF 393 renal | SF-268 CNS | SF-295 CNS | SF-539 CNS | SK-MEL-2 melanoma | SK-MEL-28 melanoma | SK-MEL-5 melanoma | SK-OV-3 ovarian | SN12C renal | SNB-19 CNS | SNB-75 CNS | SW-620 colon | TK-10 renal | U251 CNS | UACC-257 melanoma | UACC-62 melanoma | UO-31 renal
